Literature values, collected in patent US20240342244A1, “Isthmin Protein Therapeutics for the Treatment of Non-Alcoholic Fatty Liver Disease” (The Board of Trustees of the Leland Stanford Junior …, priority 2021, published 2024).

Test system: NAFLD mice
Conditions: daily injections at 30 mg/kg; after 14 days; cited from earlier work

For `CC(C)c1onc(-c2c(Cl)cccc2Cl)c1COc1ccc(/C=C/c2cccc(C(=O)O)c2)c(Cl)c1` [GW4064], the “hepatic steatosis (previously shown)” value is listed as “significantly reduce hepatic steatosis”.
